Assay results reported in publication PMC10958225, “Therapeutic potential of orally applied KB-R7943 in streptozotocin-induced neuropathy in rats” (Heliyon, 2024).

Assays:
[1] = system: STZ-treated rats with neuropathy; assay: Cold plate test; format: in vivo, rat; settings: 10 mg/kg p.o. once daily, end of the trial
Method: (§1) On the day of diabetic state induction, rats were deprived of food for 6 h (from 8 a.m. to 2 p.m.). A single i.p. injection was applied with 55 mg/kg STZ in the ice-cold citrate buffer (0.1 M pH 4.4). The observed polydipsia, polyuria, reduced thriving with lower body weight, and poor coating appearance indirectly indicated the development of diabetes. On day 28, after 6 h of fasting, blood glucose was measured with an Xpress Statstrip Glucometer (Nova Biomedical Corporation, Waltham, MA, USA) from the tail vein. A cut-off value of blood glucose >13 mmol/l was adopted. […] Controls were once i.p. injected with ice-cold citrate buffer 0.1 M pH 4.4 only.
(§2) Three animals per cage were housed for the experiment 2 (Fig. 3B). […] Body weight (BW), coat score (CS), CPT, R–S, and FT were evaluated on day 28th post-STZ, and after that, rats were distributed into the treatment groups as follows. • C-Veh – Controls, vehiculum treatment (n = 12) • NP-Veh – STZ-treated rats with neuropathy, vehiculum treatment (n = 12) • NP-KB-R7943 – 5 mg - STZ-treated rats, with neuropathy, KB-R7943 5 mg/kg treatment (n = 12) • NP-KB-R7943 – 10 mg – STZ-treated rats, with neuropathy, KB-R7943 10 mg/kg (n = 12) • NP-AMT – 10 mg - STZ-treated rats, with neuropathy, amitriptyline 10 mg/kg (n = 12). […]
This test was used for allodynia testing. […] Two independent observers recorded the time-to-paw lifting. […]

[2] = system: STZ-treated rats with neuropathy; assay: Paw pressure (Randall-Selitto) test; format: in vivo, rat; settings: 10 mg/kg p.o. once daily, vs. NPveh
Method: as §1
as §2, with “3B). Rats were gently manipulated daily before undertaking the actual behavior tests.” for “3B).”

[3] = system: STZ-treated rats with neuropathy; assay: Coat state score; format: in vivo, rat; settings: chronic p.o. treatment from day 28, day 42
Method: as §1, §2
Coat state, water consumption, and body weight were evaluated weakly. […] Water consumption was measured per cage. […]

[4] = system: STZ-treated rats with neuropathy; assay: Forced swim test (FST); format: in vivo, rat; settings: 10 mg/kg p.o. once daily from day 28, test on day 41, 5-min test
Method: as §1
as §2, with “3B). Rats were gently manipulated daily before undertaking the actual behavior tests.” for “3B).”

[5] = system: STZ-treated rats with neuropathy; assay: Formalin test (0.5% formalin); format: in vivo, rat
Method: as §1
(§3) Three animals per cage were housed for the experiment 2 (Fig. 3B). Rats were gently manipulated daily before undertaking the actual behavior tests. One week after adaptation, the Randl-Stellito (R–S) test, cold plate test (CPT), and formalin tests (FT) were performed at baseline. After that, the diabetes model was made with 48 rats. Twelve animals served as controls. Body weight (BW), coat score (CS), CPT, R–S, and FT were evaluated on day 28th post-STZ, and after that, rats were distributed into the treatment groups as follows. • C-Veh – Controls, vehiculum treatment (n = 12) • NP-Veh – STZ-treated rats with neuropathy, vehiculum treatment (n = 12) • NP-KB-R7943 – 5 mg - STZ-treated rats, with neuropathy, KB-R7943 5 mg/kg treatment (n = 12) • NP-KB-R7943 – 10 mg – STZ-treated rats, with neuropathy, KB-R7943 10 mg/kg (n = 12) • NP-AMT – 10 mg - STZ-treated rats, with neuropathy, amitriptyline 10 mg/kg (n = 12).
(§4) OraPlus was used as a vehiculum for gavage (16 gauge feeding tube 10 ml/kg) in all rats. KB-R7943 in two doses (5 or 10 mg/kg) or amitriptyline 10 mg/kg was applied once daily until day 49. Behavior tests were performed […] after the oral gavage of the corresponding day, in the afternoon, starting from 2 p.m. […] On day 41, an FST was performed, and at 2 p.m., rats were placed individually for 24 h to assess spontaneous physical activity. After that, on day 42, the same battery of the tests as on day 28 were reassessed.
The formalin test was performed 1 h after the R–S test to decrease the interaction with the mechanical stimulus from the previous test. For the same reason, the left hind paws were injected. A needle (U-100 Insulin Syringe, Beckton and Dickinson, Dublin, Ireland) was used. A low-dose intraplantar injection of formalin 50 mcl 0.5% was done, and rats were placed in individual transparent cases for observation. Two independent observers measured the time spent licking or biting the injected paw, and the first (0–5 min) and the second post-injection phase (20–30 min) were reported in sec.

[6] = system: STZ-treated rats with neuropathy; assay: 24-hour spontaneous physical activity; format: in vivo, rat; settings: 10 mg/kg p.o. once daily from day 28, from day 41
Method: as §1
as §2, with “3B). Rats were gently manipulated daily before undertaking the actual behavior tests.” for “3B).”

[7] = system: STZ-treated rats with neuropathy; assay: Mortality and adverse effects during chronic oral treatment; format: in vivo; settings: p.o. once daily day 28 to 49
Method: as §3
as §4, with “After that, on day 42, the same battery of the tests as on day 28 were reassessed.” left out

## CN(C)CCC=C1c2ccccc2CCc2ccccc21 [amitriptyline]
[1]
  effect on cold allodynia (cold plate test): demonstrated a reversal effect
[2]
  effect on mechanical allodynia (R–S test): partly reversed
[3]
  effect on coat score: ameliorated
[4]
  immobility time in FST: 137.50 ± 31.94 s
[5]; 10 mg/kg p.o. once daily, vs. NP-Veh
  effect on formalin test first phase (0–5 min): attenuated
[5]; amitriptyline 10 mg/kg, KB-R7943 5 and 10 mg/kg p.o. once daily, vs. NPveh, dose-dependent
  effect on formalin test second phase (20–30 min): attenuated
[6]
  24-h spontaneous physical activity: 1678.33 ± 282.00 beam breaks
[7]
  mortality during treatment: No one rat died
